Tests used:
Assay type in all cases: cell-based, human
[1] = tested on: hEAAT2 promoter activity, mRNA levels and protein levels; experiment: Pathway-specific inhibitors on modulated hEAAT2 promoter activity, mRNA and protein in PHFA; details: PDTC 100 μM, PD 50 μM; for effect on EGF (or TGF-α) enhancement of hEAAT2 promoter activity, mRNA and protein levels: EGF 30 ng/ml; for effect on EGF (or TGF-α) enhancement of hEAAT2 promoter activity, mRNA and protein levels / effect on bromo-cAMP (or dbcAMP) enhancement of hEAAT2 expression: KT5720 5 μM, AG1478 1 μM, wortmannin 100 nM; for effect on bromo-cAMP (or dbcAMP) enhancement of hEAAT2 expression: bromo-cAMP 250 μM
Method: (§1) FIG. 5A-E. Effect of pharmacological inhibitors on hEAAT2 promoter activity, and mRNA and protein expression in PHFA following various treatment protocols. A. hEAAT2 promoter activity in PHFA, either untreated (−) or treated with EGF (30 ng/ml), in the absence (−) or presence (+) of KT5720 (5 μM), AG1478 (1 μM), PDTC (100 μM), wortmannin (WRT) (100 nM) or PD98049 (PD) (50 μM). B. hEAAT2 promoter activity in PHFA, either untreated (−) or treated with bromo-cAMP (250 μM) in the absence (−) or presence (+) of KT5720 (5 μM), AG1478 (1 μM), PDTC (100 μM), wortmannin (WRT) (100 nM) or PD98049 (PD) (50 μM). C. hEAAT2 promoter activity in PHFA, either untreated (−) or treated with TNF-α (200 U/ml), in the absence (−) or presence (+) of KT5720 (5 μM), AG1478 (1 μM), PDTC (100 μM), wortmannin (WRT) (100 nM) or PD98049 (PD) (50 μM). D. The effect of the various treatment protocols on hEAAT2 and GAPDH mRNA levels. Upper panel presents relative hEAAT2 RNA expression versus GAPDH expression relative to control untreated or treated samples based on scanning of autoradiograms. Lower panel, actual Northern blots. E. The effect of the various treatment protocols on EAAT2 and ACTIN protein levels. Upper panel presents relative EAAT2 protein expression versus ACTIN expression relative to control untreated or treated samples based on scanning of autoradiograms. Individual experiments were performed 3 times using triplicate samples and S.D. from the mean is presented.
Biochemical Basis for Positive and Negative Regulation of hEAAT2 Expression in PHFA. To define the biochemical pathways relevant to the regulation of hEAAT2 expression in PHFA resulting from the different treatment protocols, a pharmacological approach was employed. This involved the use of well-characterized pathway-specific inhibitors and determining effects on hEAAT2 promoter activity, mRNA levels and protein levels (FIG. 5). The inhibitors included, KT5720 (a protein kinase A. (PKA) inhibitor), AG1478 (a tyrosine kinase inhibitor), worttnannin (a phosphatidylinositol 3-kinase (PI-3K) inhibitor), pyrrolidinedithiocarbamate (PDTC, an inhibitor of NF-κB activation) and PD98059 (a mitogen-activated kinase (MEK1/MEK2) inhibitor) (Zelenaia et al., 2000, Mol Pharmacol 57(4):667-678).

hEAAT2 promoter = experiment: flhEAAT2Prom-luc and deletion mutant luciferase reporter assay in PHFA treated with modulators; details: deletion mutant; for stimulation of promoter activity after deletion of bp −2426 to bp −703 / upregulation of promoter activity after deletion of bp −703 to bp −326: four day treatment
Method: (§2) FIG. 4A-D. Effect of modulators of hEAAT2 activity on hEAAT2 expression and hEAAT2 promoter activity in PHFA. A. A Northern analysis of hEAAT2 and GAPDH mRNA expression following treatment with EGF (30 ng/ml), TGF-α (30 ng/ml), dbcAMP (200 μM, bromo-cAMP (100 μM) or TNF-α (200 U/ml) for 7 days. B. Nuclear run-on assays determining the relative rates of hEAAT2 and GAPDH transcription as a function of 7-day treatment with the same concentrations of the indicated agents. C. A time course of mRNA expression of hEAAT2 and GAPDH following treatment with EGF, bromo-cAMP or TNF-α (same concentrations as in A.). D. Fold luciferase activity in PHFA transfected with flhEAAT2Prom-luc or various deletion mutants of hEAAT2 and non-transfected controls treated with the indicated compounds for four days.
Construction of hEAAT2 Promoter Deletion Mutants and Performance of the Luciferase Assays. 5′-deletion mutants of the hEAAT2 promoter were made with exonuclease III digestion using the Erase-A-Base System (Promega) as described for the PEG-3 promoter (Su et al., 2000, Oncogene 19(30):3411-3421). The flhEAAT2Prom-luc and flhEAAT2Prom-luc deletion mutants were cloned into the pGL3-basic luciferase reporter vector (Promega) and luciferase reporter assays were performed as described (Su et al., 2000, Oncogene 19(30):3411-3421; Su et al., 2001, Nucleic Acids Res 29(8):1661-1671), except that instead of using lipofectamine, which was toxic to PHFA, the calcium phosphate precipitation transfection technique was used (Babiss et al., 1986, Proc Natl Acad Sci USA 83(7):2167-2171).
Preferential Expression of the hEAAT2 Promoter in PHFA and Deletion Analysis of the hEAAT2 Promoter. hEAAT2 is expressed in brain-derived cells, mainly astrocytes (Tanaka et al., 1997, Science 276(5319):1699-1702; Anderson et al., 2000, Glia 32(1):1-14). Experiments were performed to confirm hEAAT2 promoter activity in normal human astrocytes and to determine expression levels in other cell types (FIG. 2A). Primary early passage and established human normal and tumor cell lines were co-transfected with a putative full-length ˜2.5 kb hEAAT2 promoter, a SacII fragment extending from bp −2426 to bp +44, was cloned into the pGL3-basic vector (Promega), where it drove expression of the firefly luciferase (luc) gene, and a pSV-β-galactosidase expression plasmid. Relative fold expression of a full length hEAAT2 promoter-luciferase (flhEAAT2Prom-luc) construct was determined as described (Su et al., 2000, Oncogene 19(30):3411-3421; Su et al., 2001, Nucleic Acids Res 29(8):1661-1671), and activity versus transfection with a pSV-β-galactosidase plasmid was calculated as described (Su et al., 2000, Oncogene 19(30):3411-3421; Su et al., 2001, Nucleic Acids Res 29(8):1661-1671) to equalize for differences in transfection efficiency.
To examine further the relationship between hEAAT2 and treatment with the various glutamate transporter modulators, transient transfection assays were performed in PHFA using the flhEAAT2Prom-luc constructs and various deletions thereof (FIG. 4D). […] In the case of dbcAMP, promoter activity was enhanced by ˜3-fold.

hEAAT2 mRNA = experiment: Northern blot of hEAAT2 mRNA in PHFA treated with modulators; details: for hEAAT2 mRNA expression: 7-day treatment, EGF 30 ng/ml, TGF-α 30 ng/ml, dbcAMP 200 μM, bromo-cAMP 100 μM, TNF-α 200 U/ml
Method: as §2
(§3) Northern and Western Blotting Assays. Total cellular RNA was isolated by the guanidinium/phenol extraction method and Northern blotting was performed as described (Huang et al., 2001, Oncogene 20(48):7051-7063; Su et al., 2000, Oncogene 19(30):3411-3421; Su et al., 2001, Nucleic Acids Res 29(8):1661-1671). Western blotting assays were performed as described (Su et al., 1998, Proc Natl Acad Sci USA 95(24):14400-14405; Su et al., 2002, Oncogene 21(22):3592-602).
Positive and Negative Regulation of hEAAT2 Transcription, Promoter Activity and mRNA Levels in PHFA. Several enhancers of GLT-1 expression in rat astrocytes have been identified, including epidermal growth factor (EGF), transforming growth factor-α (TGF-α) and dibutyryl cyclic AMP (dbcAMP) (Swanson et al., 1997, J Neurosci 17(3):932-940; Zelenaia et al., 2000, Mol Pharmacol 57(4):667-678). Based on these considerations, experiments were performed to determine if these agents similarly modify human hEAAT2 expression in PHFA. Consistent with previous observations in rat astrocytes, 7-day treatment with EGF, TGF-α, and two analogs of cAMP, dbcAMP and bromo-cAMP, stimulated hEAAT2 mRNA expression in PHFA, whereas TNF-α decreased expression (FIG. 4B). […] In contrast, TNF-α decreased expression by 48 h (FIG. 4C).

hEAAT2 transcription = experiment: Nuclear run-on assay of hEAAT2 transcription in PHFA; details: 7-day treatment
Method: as §2
Primer Extension Analysis and Nuclear Run-on Assays. Primer extension assays were performed as described (Su et al., 2000, Oncogene 19(30):3411-3421). A primer with the sequence 5′-[…]-3′ (SEQ ID NO:6) complementary to the 5′ UTR of the hEAAT2 cDNA was used for this assay. Nuclear run-on assays were performed as described (Su et al., 1997, Proc Natl Acad Sci USA 94(17):9125-9130).
To examine whether stimulation of hEAAT2 expression involves transcriptional changes, nuclear run-on assays were performed.

hEAAT2 protein = experiment: Western blot of EAAT2 protein in PHFA
Method: as §1, §3

stimulation of promoter activity after deletion of bp −2426 to bp −703 (hEAAT2 promoter)	Compound	effect on EGF (or TGF-α) enhancement of hEAAT2 promoter activity, mRNA and protein levels [1]	effect on bromo-cAMP (or dbcAMP) enhancement of hEAAT2 expression [1]	effect on TNF-α-decreased hEAAT2 promoter, mRNA and protein levels ([1]; cotreatment with TNF-α 200 U/ml)	upregulation of promoter activity after deletion of bp −703 to bp −326 (hEAAT2 promoter)	hEAAT2 mRNA expression (hEAAT2 mRNA)	time of highest (maximum) hEAAT2 mRNA upregulation (hEAAT2 mRNA; time course) [h]	time by which hEAAT2 mRNA expression was changed (hEAAT2 mRNA; time course, bromo-cAMP enhanced, TNF-α decreased) [h]	relative rate of transcription of hEAAT2 RNA compared with GAPDH (hEAAT2 transcription)	hEAAT2 protein levels (hEAAT2 protein)	promoter activity after further deletion of bp −326 to bp −120 (hEAAT2 promoter)
	COc1cc2ncnc(Nc3cccc(Cl)c3)c2cc1OC [AG1478]	abolished	unaffected								
	CCCCCCOC(=O)[C@]1(O)C[C@@H]2O[C@@]1(C)n1c3ccccc3c3c4c(c5c6ccccc6n2c5c31)C(=O)NC4 [KT5720]	unaffected	eliminated								
	COc1cccc(-c2cc(=O)c3ccccc3o2)c1N [PD98059]	significantly inhibited but not extinguished	partially inhibited	partial restoration of normal levels of hEAAT2 protein							
did not significantly decrease	EGF: epidermal growth factor, from Invitrogen				a level approximating that found in uninduced PHFA	stimulated	48		elevated	upregulated	did not result in any additional reduction
did not significantly decrease	TGF-α: transforming growth factor-α, from Invitrogen				a level approximating that found in uninduced PHFA	stimulated			elevated	upregulated	did not result in any additional reduction

Compound	stimulation of promoter activity after deletion of bp −2426 to bp −703 (hEAAT2 promoter)	effect on EGF (or TGF-α) enhancement of hEAAT2 promoter activity, mRNA and protein levels [1]	effect on bromo-cAMP (or dbcAMP) enhancement of hEAAT2 expression [1]	effect on TNF-α-decreased hEAAT2 promoter, mRNA and protein levels ([1]; cotreatment with TNF-α 200 U/ml)	upregulation of promoter activity after deletion of bp −703 to bp −326 (hEAAT2 promoter)	hEAAT2 mRNA expression (hEAAT2 mRNA)	time of highest (maximum) hEAAT2 mRNA upregulation (hEAAT2 mRNA; time course) [h]	time by which hEAAT2 mRNA expression was changed (hEAAT2 mRNA; time course, bromo-cAMP enhanced, TNF-α decreased) [h]	relative rate of transcription of hEAAT2 RNA compared with GAPDH (hEAAT2 transcription)	hEAAT2 protein levels (hEAAT2 protein)	promoter activity after further deletion of bp −326 to bp −120 (hEAAT2 promoter)
Nc1ncnc2c1nc(Br)n2[C@@H]1O[C@@H]2COP(=O)(O)O[C@H]2[C@H]1O [bromo-cAMP]	did not significantly decrease				most relevant	stimulated	48	≤ 24	elevated	upregulated	
